Data published in patent publication US4933456A, “Dipyridoxyl phosphate NMRI contrast agents” (Salutar, Inc., priority 1987, dated 1990).

Legend:
[1] = Potentiometric titration of the ligand DPDP; assay type: physicochemical; conditions: pH of 3 and above
Description: The compound DPDP was studied potentiometrically from pH 11.2 to 2.0. Data sets were collected on a custom-built automatic potentiometric titration apparatus composed of a METROHM 655 DOSIMAT automatic buret, a FISHER ACCUMET pH meter with a CORNING calomel combination electrode, a custom-blown water jacketed titration cell, a BRINKMAN LAUDA K-2/R constant temperature bath and a COMMODORE 64 computer. […] Data analysis was performed on an IBM-AT computer using the least squares program, BETA (Harris, W. et al, supra), and the data analysis program, HANDNBAR (Harris, W. et al, supra). The titrants were standardized by phenophthalein titration as follows: KOH was calibrated against potassium hydrogen phthalate (a primary standard), and HCl solutions were calibrated against the KOH standard. […] All solutions were made from distilled, deionized water that was further purified on a MILLI-Q cartridge system, degassed, and then kept under an atmosphere of argon which had been scrubbed for CO2 and O2. Additions of EDTA and Mn(II) solutions were performed using calibrated GILMOT pipets.

[2] = cited from earlier work

With Cc1ncc(COP(=O)(O)O)c(CN(CCN(CC(=O)O)Cc2c(COP(=O)(O)O)cnc(C)c2O)CC(=O)O)c1O [DPDP, N,N'-bis-(pyridoxal-5-phosphate)ethylenediamine-N,N'-diacetic acid or N,N'-bis(3-hydroxy-2-methyl-5-phosphonomethyl-4-pyridylmethyl)ethylenediamine-N,N'-diacetic acid] the “ionization state of the ligand” value [1] was “anionic and possesses deprotonated metal binding sites”.
For O=C(O)C(NCCNC(C(=O)O)c1ccccc1O)c1ccccc1O (centres unmarked) [EHPG, N,N'-ethylenebis-2-(o-hydroxyphenyl)glycine], the “stability of the Fe(III) chelate” value ([2]; Anderegg et al) is listed as “high stability” and the “oxidation of manganese(II) in EHPG complexes” value ([2]; above pH 5, also under inert atmospheres, Frost et al) is listed as “irreversibly oxidized”.
For O=C(O)CN(CCN(CC(=O)O)Cc1ccccc1O)Cc1ccccc1O [HBED, N,N'-bis(2-hydroxybenzyl)ethylenediamine-N,N'-diacetic acid], the “log Kf (formation constant)” value ([2]; manganese chelate, reported by L'Eplathenier et al) is listed as 14.8 and the “oxidation of manganese(II) by the phenolic ligand during titration” value ([2]; titrations of L'Eplathenier et al, judged from Patch et al) is listed as “oxidized by the phenolic ligand”.
